Data set [1] relates to MDA-MB231 cells. The conditions noted are these: 100, 200, 400 or 800 μM, cultured 24 hours, FIG. 3. The procedure: After seeding MDA-MB231 cells into a 24-well plate with 1×10^4 cells/well, the cells were stabilized by culturing for 24 hours.
After the culturing, the cells were incubated for 4 hours with an MTT tetrazolium reagent. Then, cell proliferation was investigated by measuring the absorbance of reduced MTT formazan (3-(4,5-dimethylthiazol-2-yl)-2,5-diphenyl-tetrazolium bromide) at 595 nm. Docetaxel (10 μM), which is currently used as an anticancer agent, was used as a control group.

Data set [2] concerns MDA-MB231 cells. Briefly: Cancer cell migration assay, 8 μm insert, crystal violet staining. Format: cell-based. To be noted: 100, 200, 400 or 800 μM, 5 hours, FIG. 5.
In data set [3] the test system is Escherichia coli (ATCC 25922). As to the kind of experiment: Minimum inhibitory concentration (MIC) assay on Mueller-Hinton agar, CLSI guidelines. Format: cell-based. The conditions noted are these: for antibiotic susceptibility / antibiotic effect (in words): E. coli; for MIC: E.coli (ATCC 25922), Mueller-Hinton agar. An excerpt: (§1) Staphylococcus aureus (ATCC 29213) and Escherichia coli (ATCC 25922) were used.

The test system of data set [4] is Staphylococcus aureus (ATCC 29213). The data set is described as above. The conditions noted are these: for antibiotic susceptibility / antibiotic effect (in words): S. aureus; for MIC: S.aureus (ATCC 29213), Mueller-Hinton agar. Format: cell-based.
Excerpt: as §1

The subject of data set [5] is MDA-MB231 breast cancer cells. Briefly: Exosome secretion inhibition, exosomes counted with Nano-sight LM10. Format: cell-based. To be noted: 100 μM, serum-free medium, 24 hours, FIG. 4. Here is the method:
MDA-MB231 breast cancer cells were cultured on a 150-mm culture plate. 24 hours later, after removing the medium and washing with PBS, the cells were treated with each compound at 100 μM together with a serum-free medium and cultured for 24 hours. After discarding the medium and centrifuging at 300×g for 3 minutes, 2,500×g for 15 minutes […] 10,000×g for 30 minutes, the supernatant was transferred to a fresh tube.
After filtering through a 200-nm syringe filter, exosome pellets were obtained by centrifuging at 120,000×g for 90 minutes. After redispersing the exosome pellets using PBS, the number of exosomes secreted by the cells was counted using Nano-sight LM10 (Malvern).

Broadly, the MIC is the lowest concentration found to suppress growth.

Values after ≈ are worked out from the molar mass of the structure shown. “Also recorded” adds a separate entry of the source. Read-outs that look alike come from different tables or passages of the source.

With `CC(=O)Nc1ccc(S(=O)(=O)N(C(C)=O)c2onc(C)c2C)cc1` [SFX-DAS, sulfisoxazole-N^1&N^4-dual acetyl], in the data set with MDA-MB231 cells [1], the “cytotoxicity (MTT, absorbance at 595 nm)” value is reported as “exhibit cytotoxicity at 100 μM or higher”. For the same compound, the “inhibition of migration of the cancer cells” value in the data set with MDA-MB231 cells [2] is “inhibited in a concentration-dependent manner”. Besides, the “antibiotic susceptibility / antibiotic effect (in words)” value in data set [3] and in data set [4] was “no antibiotic susceptibility at all; also recorded: completely disappeared” in each case. Besides, the minimal inhibitory concentration (MIC) in data set [3] and in data set [4] was >512 µg/mL in each case. In addition, in data set [5], the “inhibition of secretion of exosomes” value is “strongly inhibit the secretion of exosomes”.

In the case of `CC(=O)N(c1onc(C)c1C)S(=O)(=O)c1ccc(N)cc1` [SFX-N1AS, sulfisoxazole-N^1-acetyl], in the data set on MDA-MB231 cells [2], the “inhibition of migration of the cancer cells” value is “inhibited in a concentration-dependent manner”. Also, in data set [3], the “antibiotic susceptibility / antibiotic effect (in words)” value is recorded as “decreased antibiotic susceptibility; also recorded: reduced significantly” and the MIC came out at 128 µg/mL (≈ 414 µM). In data set [4], the “antibiotic susceptibility / antibiotic effect (in words)” value is recorded as “decreased antibiotic susceptibility; also recorded: reduced significantly” and the minimal inhibitory concentration (MIC) worked out at 512 µg/mL (≈ 1660 µM). The “inhibition of secretion of exosomes” value in data set [5] is recorded as “strongly inhibit the secretion of exosomes”.

For the compound `CC(=O)Nc1ccc(S(=O)(=O)Nc2onc(C)c2C)cc1` [SFX-N4AS, sulfisoxazole-N^4-acetyl], in the data set on MDA-MB231 cells [2], the “inhibition of migration of the cancer cells” value is “inhibited in a concentration-dependent manner”. For the same compound, in data set [3], the “antibiotic susceptibility / antibiotic effect (in words)” value is “no antibiotic susceptibility at all; also recorded: completely disappeared” and the MIC is >512 µg/mL. Further, in data set [4], the “antibiotic susceptibility / antibiotic effect (in words)” value is on record as “no antibiotic susceptibility at all; also recorded: completely disappeared” and the minimum inhibitory concentration (MIC) is >512 µg/mL. Also, in data set [5], the “inhibition of secretion of exosomes” value is “strongly inhibit the secretion of exosomes”.

`Cc1noc(NS(=O)(=O)c2ccc(N)cc2)c1C` [SFX-WT, sulfisoxazole, reference compound]: the “inhibition of migration of the cancer cells” value in the data set on MDA-MB231 cells [2] is recorded as “inhibited in a concentration-dependent manner”. Moreover, the “antibiotic susceptibility / antibiotic effect (in words)” value in data set [3] and in data set [4] was “strong antibiotic susceptibility” in each case. Besides, the minimum inhibitory concentration (MIC) in data set [3] (Escherichia coli, ATCC25922, read-out: MIC) was found to be 16 µg/mL (≈ 59.9 µM); in data set [4] (Staphylococcus aureus, ATCC29213, read-out: MIC), 32 µg/mL (≈ 120 µM).

The values are drawn from US20210299103A1, “COMPOSITION FOR PREVENTING OR TREATING CANCER, COMPRISING SULFONAMIDE DERIVATIVE AS ACTIVE INGREDIENT” (EXOSTEMTECH CO., LTD., priority 2018, published 2021).
